Key:
Hepatitis C virus [1] = assay: Antiviral activity against HCV genotype 2a by replicon assay; assay type: functional, organism-based, Hepacivirus hominis
Hepatitis C virus [2] = assay: Antiviral activity against HCV genotype 1a expressing NS5A Y93H mutant by replicon assay; assay type: functional, organism-based, Hepacivirus hominis; settings: subtype 1a
Hepatitis C virus [3] = assay: Antiviral activity against HCV genotype 3a by replicon assay; assay type: functional, organism-based, Hepacivirus hominis
Hepatitis C virus [4] = assay: Antiviral activity against HCV genotype 1a by replicon assay; assay type: functional, organism-based, Hepacivirus hominis; settings: subtype 1a
Hepatitis C virus [5] = assay: Antiviral activity against HCV genotype 1b by replicon assay; assay type: functional, organism-based, Hepacivirus hominis
Rattus norvegicus = assay: AUC in Sprague-Dawley rat at 5 mg/kg, po; assay type: ADME, organism-based; settings: in vivo
[6] = Half life in iv dosed Sprague-Dawley rat; assay type: ADME, organism-based; settings: in vivo
[7] = biological target: T1, Nuclear receptor subfamily 1 group I member 2 (Homo sapiens, UniProt O75469); assay: Activation of PXR (unknown origin); assay type: ADME
T1 sequence (O75469 whole entry): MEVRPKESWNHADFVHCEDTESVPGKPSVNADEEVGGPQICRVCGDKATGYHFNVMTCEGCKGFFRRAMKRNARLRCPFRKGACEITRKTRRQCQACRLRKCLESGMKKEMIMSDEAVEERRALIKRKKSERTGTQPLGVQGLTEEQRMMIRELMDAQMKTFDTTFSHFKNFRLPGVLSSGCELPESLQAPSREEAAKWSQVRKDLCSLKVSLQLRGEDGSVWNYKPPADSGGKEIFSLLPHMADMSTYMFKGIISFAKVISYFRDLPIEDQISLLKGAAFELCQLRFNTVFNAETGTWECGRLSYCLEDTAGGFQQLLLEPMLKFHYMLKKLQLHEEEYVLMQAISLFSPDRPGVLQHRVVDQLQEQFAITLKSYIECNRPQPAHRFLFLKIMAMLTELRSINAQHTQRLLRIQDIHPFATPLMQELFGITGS

Hepatitis C virus [8] = assay: Antiviral activity against HCV genotype 2b by replicon assay; assay type: functional, organism-based, Hepacivirus hominis

| Structure (SMILES) | EC50 (Hepatitis C virus [1]) | EC50 (Hepatitis C virus [2]) | EC50 (Hepatitis C virus [3]) | EC50 (Hepatitis C virus [4]) | EC50 (Hepatitis C virus [5]) | AUC (Rattus norvegicus) | half-life [6] | EC50 [7] | EC50 (Hepatitis C virus [8]) |
| --- | --- | --- | --- | --- | --- | --- | --- | --- | --- |
| COC(=O)N[C@H](C(=O)N1C[Si](C)(C)C[C@H]1c1ncc(-c2ccc(-c3ccc(-c4cnc([C@@H]5C[Si](C)(C)CN5C(=O)[C@@H](NC(=O)OC)C(C)C)[nH]4)cc3)cc2)[nH]1)C(C)C | 0.25 nM | > 1000 nM | 4.1 nM | 0.2 nM | 0.01 nM |  |  |  |  |
| COC(=O)N[C@H](C(=O)N1CCC[C@H]1c1ncc(-c2ccc(-c3ccc4c(ccc5nc([C@@H]6C[Si](C)(C)CN6C(=O)[C@@H](NC(=O)OC)C(C)C)[nH]c54)c3)cc2)[nH]1)C(C)C | 0.004 nM | 35 nM | 0.26 nM | 0.003 nM | 0.004 nM | 3.2 uM.hr/ml | 6.6 h |  |  |
| COC(=O)N[C@H](C(=O)N1CCC[C@H]1c1ncc(-c2ccc(-c3cc4cc(-c5cnc([C@@H]6CCCN6C(=O)[C@@H](NC(=O)OC)C(C)C)[nH]5)ccc4o3)cc2)[nH]1)C(C)C | 0.4 nM | 24 nM | 4 nM | 0.01 nM | 0.001 nM |  |  | 3300 nM | 286 nM |
| COC(=O)N[C@H](C(=O)N1C[Si]2(CCCC2)C[C@H]1c1ncc(-c2ccc(-c3ccc4c(ccc5nc([C@@H]6CCCN6C(=O)[C@@H](NC(=O)OC)C(C)C)[nH]c54)c3)cc2)[nH]1)C(C)C | 0.01 nM | 350 nM | 0.2 nM | 0.06 nM |  |  |  |  |  |
| COC(=O)N[C@H](C(=O)N1CCC[C@H]1c1ncc(-c2ccc(-c3cc4cc(-c5cnc([C@@H]6C[Si](C)(C)CN6C(=O)[C@@H](NC(=O)OC)C(C)C)[nH]5)ccc4o3)cc2)[nH]1)C(C)C | 2.4 nM | 153 nM | 15 nM | 0.04 nM | 0.003 nM |  |  |  |  |
| COC(=O)N[C@H](C(=O)N1CCC[C@H]1c1ncc(-c2ccc(-c3ccc(-c4cnc([C@@H]5C[Si](C)(C)CN5C(=O)[C@@H](NC(=O)OC)C(C)C)[nH]4)cc3)cc2)[nH]1)C(C)C | 0.04 nM | 92 nM | 0.5 nM | 0.04 nM | 0.003 nM |  |  |  |  |
| COC(=O)N[C@H](C(=O)N1C[Si](C)(C)C[C@H]1c1ncc(-c2ccc(-c3ccc4c(ccc5nc([C@@H]6CC(F)(F)CN6C(=O)[C@@H](NC(=O)OC)C(C)C)[nH]c54)c3)cc2)[nH]1)C(C)C |  | 65 nM |  |  |  | 7.6 uM.hr/ml | 6.7 h |  |  |
| COC(=O)N[C@H](C(=O)N1CC(F)(F)C[C@H]1c1ncc(-c2ccc(-c3ccc4c(ccc5nc([C@@H]6C[Si](C)(C)CN6C(=O)[C@@H](NC(=O)OC)C(C)C)[nH]c54)c3)cc2)[nH]1)C(C)C |  | 46 nM |  | 0.015 nM |  | 5 uM.hr/ml |  |  |  |
| COC(=O)N[C@H](C(=O)N1CCC[C@H]1c1ncc(-c2ccc(-c3ccc(-c4cnc([C@@H]5CCCN5C(=O)[C@@H](NC(=O)OC)C(C)C)[nH]4)cc3)cc2)[nH]1)C(C)C | 0.04 nM | 198 nM | 0.7 nM |  | 0.01 nM |  |  |  |  |
| COC(=O)N[C@H](C(=O)N1C[Si](C)(C)C[C@H]1c1ncc(-c2ccc(-c3ccc4c(ccc5nc([C@@H]6CCCN6C(=O)[C@@H](NC(=O)OC)C(C)C)[nH]c54)c3)cc2)[nH]1)C(C)C | 0.02 nM | 95 nM | 0.05 nM | 0.014 nM | 0.003 nM |  |  |  |  |
